Several values for one entry are separate records, joined by “and”; a condition that tells them apart may be missing. Equal values may be shown once. Read-outs that look alike come from different tables or passages of the source. Blank lines part the entries; values can stand above or below the molecule they belong to.
What was measured:
[1] = target: anti-DOTA-hapten antibody single chain variable fragment C825; details: mean ±SD, read-out: Kd (equilibrium dissociation constant) of C825, cited from earlier work
SW1222 tumor = experiment: In vivo competition study: maximum tumor uptake of pretargeted DOTA-hapten; parameters: species or system mice
Protocol: In addition to studies with tracer doses of radiolabeled Proteus-DOTA, the upper limit for absolute tumor uptake of radiolabeled Proteus-DOTA was determined using in vivo competition studies. Biodistribution experiments were conducted 24 h following dosing of groups of tumor bearing mice with wide mass range of Proteus-DOTA spanning 2 orders of magnitude (˜170-33800 pmol), showing maximum tumor uptake (“Bmax”) of ˜60 pmol DOTA-hapten/gram of SW1222 tumor. […] Based on a maximum tumor uptake of pretargeted Proteus-DOTA of 62 pmol per gram of SW1222 tumor, ˜180 nCi of ^225Ac could be localized per gram of tumor at SA that are currently achieved with quantitative RCY.

[2] = Dynamic PET imaging and ex vivo biodistribution of [^68Ga]Proteus-DOTA in mice bearing NCI-N87 tumors; parameters: species or system nude mice
Excerpt: Decay-corrected blood and kidney time-activity curves (TAC) are shown for two individual mice. The blood-TAC for each of the animals was separately curve-fitted to a non-linear two phase decay equation. The (i) percent fast, (ii) half life (slow; minutes), (iii) half-life (fast; minutes), and (iv) R^2 values for mouse 1/mouse 2 were: 46/56, 13.2/13.7, 1.4/0.94, and 0.95/0.99, respectively.
PET Imaging and Biodistribution Studies with […]. […] Nude mice bearing HER2-expressing NCI-N87 human gastric carcinoma subcutaneous xenografts (n=4) were injected with 113-140 μCi ([…]) [^68Ga]Proteus-DOTA and imaged with dynamic positron-emission imaging for […] post-injection (p.i.) (n=2), or with static imaging at 1 h p.i. (n=4). All animals were then sacrificed at 2 hours post injection for ex vivo biodistribution analysis. The list-mode data was histogrammed using the following protocol: 12×10 seconds, 6×30 seconds, 5×60 seconds, 4×300 seconds, 30 min, resulting in […]. Regions-of-interest were drawn around heart (for blood as cardiac outflow) and kidney to determine activity concentrations (as % ID/g).

[3] = Blood half-life and biodistribution of [^111In]Proteus-DOTA in tumor-free nude mice; format: in vivo, athymic nu/nu female mice
Protocol: The blood half-life of surrogate [^111In] Proteus-DOTA was determined. Dotted line indicates nonlinear two phase decay analysis used to calculate half-life (R^2=0.913). Data is presented as mean ±SD.
(n=5 mice; given i.v.) in tumor-free healthy athymic nu/nu female mice.
Preparation of [^111In]Proteus-DOTA. Using similar radiochemical methods, [^111In]Proteus-DOTA was prepared from [^111In]indium chloride (Nuclear Diagnostic Products, Inc., Rockaway, N.J.; 249 MBq [6.73 mCi]) and 150 μL of 10 mg/mL Proteus-DOTA (1.5 mg; 1.11 μmoles). The [^111In]Proteus-DOTA yield was >98% and the final Specific Activity was 162.8 GBq/g [4.4 Ci/g] or 2.28 E5 GBq/mol [6160 Ci/mol]. This preparation was used for pharmacokinetic studies. Prior to administration into mice, the [^111In]Proteus-DOTA was purified using a Strata™-X cartridge (33 μm Polymeric Reversed Phase C-18 30 mg/l mL #8B-S100-TAK, Phenomenex® Inc., Torrance, Calif. USA) as described for [^68Ga]Proteus-DOTA and the radiochemical purity was verified to be >98% either using an in vitro binding assay with excess BsAb or by analytical reverse-phase HPLC coupled with radiodetection.
A biodistribution assay conducted at 240 min p.i.

[4] = system: GPA33-expressing SW1222 xenografts; details: anti-GPA33-DOTA-PRIT, 10-50 pmol, 24 hours p.i.; cited from earlier work
[5] = system: GD2-expressing IMR-32 human neuroblastoma xenografts; experiment: Anti-GD2-DOTA-PRIT pretargeting biodistribution, ^225Ac- vs ^177Lu-DOTA-Bn; format: in vivo, athymic nude mice; details: pretargeted with hu3F8-C825 + clearing agent, 24 hours post-injection
Protocol: Female athymic nude mice bearing subcutaneous GD2-expressing IMR-32 human neuroblastoma xenografts in the right-hand flank were injected intravenously (i.v.) via the lateral tail-vein with three separate reagents: (1) hu3F8-C825 (0.25 mg, 1.19 nmol) [t=−28 hours (h)], followed by (2) 0.1 mg 500 kD-dextran-DOTA-Bn(Y) (0.2 nmol of CA; 146 DOTA-Bn(Y)/mol of dextran, 29 nmol of DOTA-Bn(Y)) [t=−4 h] and (3) an equimolar amount of either ^177Lu- or ^225Ac-DOTA-Bn (50 μCi and 100 μCi of ^177Lu and ^225Ac, respectively, 8-10 pmol) at [t=0 h]. Mice were sacrificed at 24 h post-injection of radiotracer for biodistribution assay of tumor and select normal tissues. The average tumor masses were as follows (presented as average ±SD): 0.77±0.62 g and 0.49±0.28 g for ^177Lu and ^225Ac cohorts, respectively. Activity concentration data are expressed as the mean % ID/g standard error of the mean (SEM). Errors for the tumor-to-tissue ratios are calculated as the geometric mean of the standard errors of the mean. Student's t-test p-values highlighted in bold are considered significant (p<0.05).

[6] = biphasic, nonlinear two phase decay, R^2=0.913

SMILES: Nc1ccc(CC2CN(CC(=O)[O-])CCN(CC(=O)O)CCN(CC(=O)[O-])CCN2CC(=O)[O-])cc1.[Lu+3] (stereo not drawn) [DOTA-Bn complex of Lu, S-2-(4-aminobenzyl)-1,4,7,10-tetraazacyclododecane tetraacetic acid chelate]
Kd ([1]; listed as benzyl-DOTA (Lu) hapten): 0.01 nM | Kd [1]: 0.0108 ± 0.0025 nM

SMILES: O=C([O-])CN1CCN(CC(=O)[O-])CCN(CC(=O)NCCOCCOCCOCCOCCNC(=S)Nc2ccc(CC3CN(CC(=O)[O-])CCN(CC(=O)[O-])CCN(CC(=O)[O-])CCN3CC(=O)[O-])cc2)CCN(CC(=O)[O-])CC1.[Lu+3] (stereo not drawn) [Proteus-DOTA]
^225Ac that could be localized per gram of tumor (SW1222 tumor; based on 62 pmol per gram at currently achieved SA): ~180 nCi | maximum tumor uptake ("Bmax") (SW1222 tumor; pretargeted, 24 h after dosing, ~170-33800 pmol): ~60 pmol DOTA-hapten/gram of SW1222 tumor and 62 pmol DOTA-hapten/gram of SW1222 tumor

SMILES: O=C([O-])CN1CCN(CC(=O)[O-])CCN(CC(=O)NCCOCCOCCOCCOCCNC(=S)Nc2ccc(CC3CN(CC(=O)[O-])CCN(CC(=O)[O-])CCN(CC(=O)[O-])CCN3CC(=O)[O-])cc2)CCN(CC(=O)[O-])CC1.[68Ga+3].[Lu+3] (stereo not drawn) [[^68Ga]Proteus-DOTA]
Blood activity concentration ([2]; 2 h p.i., n = 4): 2.29 ± 0.31 % ID/g | Bone activity concentration ([2]; 2 h p.i., n = 4): 0.39 ± 0.07 % ID/g | Heart activity concentration ([2]; 2 h p.i., n = 4): 0.75 ± 0.10 % ID/g | Kidneys activity concentration ([2]; 2 h p.i., n = 4): 1.53 ± 0.50 % ID/g | Large Intestine activity concentration ([2]; 2 h p.i., n = 4): 0.44 ± 0.10 % ID/g | Liver activity concentration ([2]; 2 h p.i., n = 4): 1.19 ± 0.08 % ID/g | Lungs activity concentration ([2]; 2 h p.i., n = 4): 1.00 ± 0.13 % ID/g | Muscle activity concentration ([2]; 2 h p.i., n = 4): 0.17 ± 0.03 % ID/g | Small Intestine activity concentration ([2]; 2 h p.i., n = 4): 0.59 ± 0.21 % ID/g | Spleen activity concentration ([2]; 2 h p.i., n = 4): 0.56 ± 0.13 % ID/g | Stomach activity concentration ([2]; 2 h p.i., n = 4): 0.19 ± 0.05 % ID/g | Tumor activity concentration ([2]; NCI-N87 tumor, 2 h p.i., n = 4): 0.65 ± 0.08 % ID/g | blood half life (slow) ([2]; mouse 1, two phase decay fit): 13.2 min | blood half-life (fast) ([2]; mouse 1, two phase decay fit): 1.4 min | blood time-activity curve, percent fast ([2]; mouse 1, two phase decay fit): 46 | blood half life (slow) ([2]; mouse 2, two phase decay fit): 13.7 min | blood half-life (fast) ([2]; mouse 2, two phase decay fit): 0.94 min | blood time-activity curve, percent fast ([2]; mouse 2, two phase decay fit): 56

SMILES: O=C([O-])CN1CCN(CC(=O)[O-])CCN(CC(=O)NCCOCCOCCOCCOCCNC(=S)Nc2ccc(CC3CN(CC(=O)[O-])CCN(CC(=O)[O-])CCN(CC(=O)[O-])CCN3CC(=O)[O-])cc2)CCN(CC(=O)[O-])CC1.[111In+3].[Lu+3] (stereo not drawn) [[^111In]Proteus-DOTA]
kidney retention (percent injected activity per gram of tissue) ([3]; 240 min p.i., i.v., n=5, mean ±SD): 0.96±0.25 % IA/g | remaining ^111In-activity in carcass after tissue dissection ([3]; 240 min p.i., n=5, mean ±SD): 0.952±0.162 % ID | share of alpha phase of blood clearance ([3]; biphasic, nonlinear two phase decay): 87.7% | blood half-life (alpha) [3, 6]: 7.49 min | blood half-life (beta) [3, 6]: 24.8 min

SMILES: Nc1ccc(CC2CN(CC(=O)[O-])CCN(CC(=O)[O-])CCN(CC(=O)[O-])CCN2CC(=O)[O-])cc1.[86Y+3] (stereo not drawn) [^86Y-DOTA-Bn]
mean tumor uptake [4]: ~8 % ID/g

Blood uptake [5]: 0.49±0.09 % ID/g | kidney uptake [5]: 0.83±0.10 % ID/g | tumor uptake ([5]; IMR-32 xenograft, n=5): 10.29±2.87 % ID/g | maximum tumor uptake (SW1222 tumor; pretargeted, same system, i.v. administered dose of 600 pmol): ~60 pmol/g
SMILES: Nc1ccc(CC2CN(CC(=O)[O-])CCN(CC(=O)[O-])CCN(CC(=O)[O-])CCN2CC(=O)[O-])cc1.[177Lu+3] (stereo not drawn) [^177Lu-DOTA-Bn]
mean tumor uptake [4]: ~8 % ID/g

Reference: US11565005B2, “Dota-hapten compositions for anti-dota/anti-tumor antigen bispecific antibody pretargeted radioimmunotherapy” (MEMORIAL SLOAN KETTERING CANCER CENTER, priority 2017, dated 2023)
